According to patent US20180163180A1, “METHOD OF ENHANCING SOMATIC CELL REPROGRAMMING WITH THE ACETYLLYSINE READER BRD3R” (THE UAB RESEARCH FOUNDATION, INC ., priority 2015, published 2018):

How the values were obtained:
BJ cells [1] = test: Quantification of ESC-like (high-quality PSC morphology) colonies in reprogramming; format: cell-based, human; settings: BRD3R reprogramming vs control reprogramming
Source text: When combined with the 3F combination (OCT4, SOX2 and KLF4), BRD3R gave rise to abundant TRA-1-60^+ clusters as early as day 6, whereas such clusters were infrequent events before day 10 in the control reprogramming (3F alone and 3F-GFP) (FIGS. 8A and 8E). On day 10, TRA-1-60^+ cells in BRD3R dishes developed into colonies while controls contained only small clusters of TRA-1-60^+ cells (FIG. 8E). The number of high-quality PSC colonies was also compared (well-defined colony border, homogeneous iPSCs within each reprogramming colony, smooth colony surface, and typical morphology of pluripotent cells (small cells, large nucleus, and close cell contact)), BRD3R reprogramming gave rise to at least 57× more colonies with PSC morphology than controls (FIGS. 9A and 9B). In addition, the iPSC colonies generally were larger in BRD3R dishes than in the control dishes (FIG. 1E, and FIGS. 8C, 8E, 9B, and 12C).
• Cell culture and reprogramming: Human fibroblast cells (BJ ATCC CRL-2522®) were cultured in fibroblast medium: DMEM, 10% heat-inactivated FBS, 0.1 mM 2-mercaptoethanol, 100 U/ml penicillin, 100 μg/ml streptomycin, 0.1 mM MEM NEAA and 4 ng/ml human bFGF. For reprogramming, seed BJ cells into 24-well plate at 2×10^4 cells/well. […]

reprogramming BJ cells = test: RNA sequencing of cells on day 3 of reprogramming; format: cell-based, human
Protocol: • RNA sequencing: mRNA sequencing was performed on the Illumina HiSeq2500 using the sequencing reagents and flow cells providing up to 300 Gb of sequence information per flow cell. Briefly, the quality of the total RNA was assessed using the Agilent 2100 Bioanalyzer followed by 2 rounds of polyA+ selection and conversion to cDNA. The stranded mRNA library generation kits were used per manufacturer's instructions (Agilent, Santa Clara, Calif.). Library construction consists of random fragmentation of the polyA mRNA, followed by cDNA production using random primers with inclusion of Actinomycin D in the first strand reaction. The ends of the cDNA are repaired, polyA-tailed and adaptors ligated for indexing (4 different barcodes per lane) during the sequencing runs. The cDNA libraries were quantitated using qPCR in a Roche LightCycler 480 with the Kapa Biosystems kit for library quantitation (Kapa Biosystems, Woburn, Mass.) prior to cluster generation. Clusters were generated to yield approximately 725 K to 825 K clusters/mm^2. Cluster density and quality were determined during the run after the first base addition parameters were assessed. Paired end 2×50 bp sequencing runs were run to align the cDNA sequences to the reference genome.
• Bioinformatics: 25-65 million of paired 51 bp reads were obtained for each sample. RNA sequencing reads were mapped to the human reference genome (GRCh37/hg19) using TopHat (v2.0.13) (Kim et al., (2013) Genome Biol. 14: R36). For more accurate mapping, the mean insert sizes and the standard deviations were calculated using Picard-tools (v1.126), and were passed to the mapper along with a Gene Transfer File (GTF version GRCh37.70) and the data were re-aligned. Read count tables were generated using HT-seq (v0.6.0) (Anders et al., (2015) Bioinformatics 31: 166-169). Deferential Expression (DE) analysis was performed using DESeq (v3.0) (Anders & Huber (2010) Genome Biol. 11: R106). Cufflinks v2.2.1 (Trapnell et al., (2010) Nat. Biotechnol. 28: 511-515) and Cummerbund v3.0 (Goff et al., (2014): Visualization and Exploration of Cufflinks High-throughput Sequencing Data., pp. 45) were also used for calculating expression levels in FPKM and data visualization. The BigWig files were generated using Bedtools (v2.17.0) (Quinlan & Hall (2010) Bioinformatics 26: 841-842) and bedGraphToBigWig tool (v4). For the analysis of micro-array data, Limma v3.0 (Smyth G. K., (2005) in Bioinformatics and Computational Biology Solutions Using R and Bioconductor: Gentleman et al., Eds. (Springer: New York): Ch. 23: pp. 397-420) was used Gene Ontology (GO) analysis was conducted using PANTHER (Mi et al., (2013) Nat. Protoc. 8: 1551-1566), Cytoscape-BiNGO (Saito et al., (2012) Nat. Methods 9: 1069-1076) and DAVID (Huang da et al., (2009) Nat. Protoc. 4: 44-57). Lists of mitotic genes were compiled based on the results from the three tools.

BJ cells [2] = test: Reprogramming of human fibroblasts scored by TRA-1-60+ colonies/clusters; format: cell-based
Protocol: Briefly (FIG. 1A), 2×10^4 of BJ cells were seeded in each well of a 24-well plates. The second day, fibroblasts were transduced with OCT4 (10 MOI), SOX2 (5 MOI), KLF4 (5 MOI) along with 250 μl of individual kinase viral supernatant freshly packaged in one well of a 6-well plate. Twenty-two cDNAs were evaluated in one 24-well plate. One well is OSK control, and one well of cells is transduced with OSK plus 250 μl of GFP viral supernatant as a second control. Virus was removed next day with fresh fibroblast medium. Forty-eight hours after transduction, fibroblasts were transferred from one well into a 60-mm dish for continued reprogramming. The next day of re-seeding, fibroblast medium was replaced with E7 medium (E8 minus TGF beta) plus 100 μM of sodium butyrate. From day 18 of reprogramming on, E8 media was used. On day 25 of reprogramming, reprogramming dishes were stained for ALP or TRA-1-60 markers.
• Concentration of virus: The reprogramming viruses (OCT4, SOX2, KLF4, MYC and BET members) were concentrated before use except for library viruses. The lentiviral supernatant was centrifuged at 3,000×g for 10 mins at 4° C. to remove the cell debris. Thirty ml of the viral supernatant was then transferred into each 50-ml tube. 7 ml of 50% PEG-6000 stock solution (final concentration of 8.5%) and 4.1 ml of 4 M NaCl stock solution was added to each tube (final concentration of 0.4 M). The virus mixture was stored at 4° C. for 3-5 h.
• Cell culture and reprogramming: Human fibroblast cells (BJ ATCC CRL-2522®) were cultured in fibroblast medium: DMEM, 10% heat-inactivated FBS, 0.1 mM 2-mercaptoethanol, 100 U/ml penicillin, 100 μg/ml streptomycin, 0.1 mM MEM NEAA and 4 ng/ml human bFGF. For reprogramming, seed BJ cells into 24-well plate at 2×10^4 cells/well. Twenty-four hours after plating, pre-mix the OSK (OCT4, 10 MOI; SOX2, 5 MOI and KLF4, 5 MOI) viruses (shown in FIGS. 6B-6D, SEQ ID NO: 58-60, respectively), and add the OSK virus along with 250 μl supernatant of individual kinase virus into respective wells. Incubate overnight. Next morning, remove viruses by replacing virus-containing medium with fresh fibroblast medium. Twenty-four hours after transduction, the cells were re-seeded from one well into one matrigel-coated 60-mm dish. Next day, replace fibroblast medium with reprogramming media (E7 plus sodium butyrate at 100 μM). On 18 day, start to use E8 media. On day 25 of reprogramming, stain the reprogramming cells for alkaline phosphatase or TRA-1-60.

BRD3R: BRD3 with Reprogramming activity; 556 aa isoform of human BRD3 (AAH32124, SEQ ID NO: 47), encoded by cDNA L61
more colonies with PSC morphology than controls (BJ cells [1]): at least 57 ×
expression of CDKN2A, CDKN2B, CDKN1A, TP53 (p53-p21 pathway) (reprogramming BJ cells; BRD3R reprogramming cells): Downregulation was not seen
AFC of CEP78 (reprogramming BJ cells; day 3 of reprogramming): 0.94 ×
AFC of ERG (reprogramming BJ cells; day 3 of reprogramming): 0.84 ×
AFC of PSMB9 (reprogramming BJ cells; day 3 of reprogramming): 0.87 ×
number of upregulated genes in the mitotic category (reprogramming BJ cells; of 335 GO mapped genes, day 3): 128 genes
AFC of the 23 always upregulated mitotic genes (reprogramming BJ cells; p<0.05, day 3): at least 2.24 ×
total mitotic genes statistically upregulated in at least one comparison (reprogramming BJ cells; ≥1.5×, p<0.05, 4 IFC and 1 AFC comparisons, day 3): 185 genes
number of genes upregulated in BRD3R-expressing cells (reprogramming BJ cells; ≥1.7×, p<0.05, ADNRC≥50, day 3): 401 genes
appearance of abundant TRA-1-60+ clusters (BJ cells [2]; combined with 3F (OCT4, SOX2, KLF4), controls infrequent before day 10): 6 days
reprogramming activity (TRA-1-60+ colonies) (BJ cells [2]; used with 3F in BJ cells, compared to OSK-GFP control): more TRA-1-60^+ colonies
